From patent US8716302B2, “Compounds for inducing cellular apoptosis” (Queen Mary & Westfield College, priority 2009, dated 2014) come the findings set out here.

Broadly, the viability is a per cent measure of how many cells are alive, often set against a control.

The test system of data set [1] is DoHH2 cells. The experiment in a line: Superoxide purging with MnTBAP, apoptosis in DoHH2 cells. Type of data set: cell-based, human. To be noted: with and without ROS scavenger MnTBAP. Here is the method:
For each entry in FIG. 2, DAPI viable is on the left and DAPI non viable is on the right.
O^2-• was detected by incubating cells for 15 minutes in 5 μM dihydroethidium, which is oxidized to ethidium. To test the effect of O^2-• […] on O^2-• generation, cells were treated with 100 μM MnTBAP for 45 minutes. Hydrogen peroxide was detected by loading cells for 30 minutes with 5 μM CM-H2DCFDA, and its formation inhibited by preincubation with 500 U/ml catalase for 30 minutes. Dose-response curves for CM-H2DCFDA used the calculated proportion of CM-H2DCFDAhigh cells as the dependent variable.
DoHH2 cells were exposed to AAW-001, AAW-0014 and PK11195 in the presence and absence of the mitochondrial reactive oxygen species (ROS) scavenger MnTBAP.

The subject of data set [2] is human lymphoma DoHH2 cell line xenograft. The data set is described as follows: DoHH2 xenograft NOD/SCID mice. In kind it is in vivo. To be noted: for mice alive at 10 weeks: cohorts of ten mice. Here is the method: NOD/SCID mice xenografted with the human lymphoma DoHH2 cell line were treated two weeks post inoculation with the human B cell lymphoma cell line DoHH2. There were three cohorts of ten mice. For two cohorts, treatment consisted of 50 microgram intraperitoneal (IP) doses twice weekly for three weeks of PK11195 or AAW-0014, respectively. The third cohort was treated with 200 microlitres of saline twice weekly over a 3 week period. The mice were then observed for up to six weeks. All of the saline treated mice were dead due to disease at 10 weeks. […] All of the AAW-0014 treated mice were alive at 10 weeks showing less than 20% splenic involvement, including 2 mice with no detectable disease.

Data set [3] deals with DoHH2 (lymphoma) cell line. The experiment in a line: DiOC6(3) flow evaluation of cell viability and apoptosis, DoHH2 (lymphoma) cell line. In kind it is cell-based, human. To be noted: for Percentage Cell Viability: DoHH2 cells, 50 μM; for cytotoxicity at 50 µM / viability at 50 µM: Homo sapiens, DOHH-2, DoHH2 cells. The procedure: DiOC6(3) flow evaluation of cell viability and levels of apoptosis was carried out at 10 and 50 μm concentrations. For each entry in FIG. 1, % apoptosis is on the left and % viable is on the right.
Measurement of Mitochondrial Membrane Potential depolarisation and mitochondrial permeability transition (MPT). Cells were incubated for 20 minutes at 37° C. in the dark with the cationic lipophillic (amphipathic) probe 3,3′-dihexyloxacarbocyanine iodide, DiOC6(3) (80 nM), then counter stained for 10 minutes with propidium iodide (20 μg/ml). DiOC6(3) is sequestered within the mitochondrial matrix due to the inner membrane potential (Δψm), according to the Nernst equation, dissipation leading to a reduction in mitochondrial retention and decreased cellular DiOC6(3) fluorescence. Collapse of Δψm was prevented by incubating cells for 30 minutes with 50 μM bongkrekic acid. Events with increased propidium iodide fluorescence were subtracted, by gating, from the DiOC6(3) histograms to eliminate dead cells, with loss of plasma membrane integrity. Dose-response curves used the calculated proportion of DiOC6(3)low, cells as the dependent variable on the ordinate. To measure MPT directly, cells were incubated with 1 μM calcein AM for 30 minutes, followed by 1 mM […] cobalt. Cobalt quenches calcein fluorescence, but cannot traverse an intact inner mitochondrial membrane to enter the mitochondrial matrix, to which calcein equilibrates. Opening of the PTPC allows cobalt to enter, reducing calcein fluorescence.
The Lymphoma cell line (DoHH2) was treated with PK11195 and various compounds of the invention at doses of 10 and 50 μmol concentrations. Levels of cell viability and apoptosis were measured by DiOC6 flow evaluation. DiOC6 is a fluorescent dye which acts as a surrogate marker of mitochondrial depolarisation. Uptake of DiOC6 and consequent fluorescence is a measure of opening of the permeability transition pore complex (PTPC).
The following tables set out % viability and % apoptosis results seen for treatment of DoHH2 cells with certain compounds of the invention at a dosage of 50 μM, in comparison with untreated cells. The assay procedure used was as described above in respect of “Treatment of DoHH 2 (Lymphoma) Cell Line”.

The mark [4] stands for this setting: 50 microgram IP twice weekly for three weeks.
The mark [5] stands for this setting: at 10 weeks, 50 microgram IP twice weekly for three weeks.
The mark [6] stands for this setting: average of repeats, read-out: Percentage Cell Apoptosis, Averages.
The mark [7] stands for this setting: average of repeats, read-out: Percentage Cell Viability, Averages.
[8] abbreviates: individual repeats, read-out: Percentage Cell Apoptosis.
Setting [9] is: individual repeats, read-out: Percentage Cell Viability.

Values joined by “and” are separate entries in the source; they are usually repeats but may differ in a detail not shown here. Equal values may be shown once. Read-outs that look alike come from different tables or passages of the source.

For `CCCCC(=O)Nc1nc2c(c(-c3ccccc3Cl)n1)CN(Cc1ccccc1)CC2` [CO-AAW00014, pentanoic acid [6-benzyl-4-(2-chloro-phenyl)-5,6,7,8-[4,3-d]pyrimidin-2-yl]-amide], the “ability to induce apoptosis in the presence of MnTBAP” value in data set [1] is listed as “inhibited by MnTBAP”. Besides, in data set [2] (setting [4]), the drug related toxicities result was “No major drug related toxicities were observed” and the “mice alive at 10 weeks” value was “All”. In data set [2] (setting [5]), the splenic involvement result is on record as “less than 20%”. Besides, in data set [2] (at 10 weeks, of ten mice), the “mice with no detectable disease” value turned out to be 2. Moreover, the “Percentage Cell Viability” value in data set [3] (individual repeats, listed as 14, 50 µM) is 68.8% and 42.3% and 39.4% and 65.8% and 51.8% and 54.3% and 49.6%. Besides, the cytotoxicity at 50 µM in data set [3] (setting [6]) was 65.5%. Further, in data set [3] (setting [7]), the viability at 50 µM amounted to 53.1%.

For the molecule `CC(C)C(=O)Nc1cc2c(c(-c3ccccc3Cl)c1)CCN(C(=O)c1ccccc1)C2` [CO-AAW00025, N-[2-Benzoyl-5-(2-chloro-phenyl)-1,2,3,4-tetrahydroisoquinolin-7-yl]2-methylpropanamide], in data set [3] (individual repeats, listed as 25, 50 µM), the “Percentage Cell Viability” value was 56.3% and 78.8%. Also, the values for the cytotoxicity at 50 µM in data set [3] (setting [6]) and in data set [3] (setting [8]) were 15.4% and 19.7%, respectively. Besides, the viability at 50 µM in data set [3] (setting [7]) was determined as 67.6%.

In the case of `CCC(C)N(C)C(=O)c1cc2ccccc2c(-c2ccccc2Cl)n1` (centres unmarked) [PK11195, 1-(2-chlorophenyl)-N-methyl-N-(1-methylpropyl)-3-isoquinolinecarboxamide, reference compound], the “disease on splenic assessment on culling” value in data set [2] (setting [5]) was “moderate levels of disease”. Also, the “mice alive at 10 weeks” value in data set [2] (setting [4]) is reported as “Five of the ten”.

Turning to `CCCC(=O)N1CCc2c(cc([N+](=O)[O-])cc2-c2ccccc2Cl)C1` [CO-AAW00017, 1-[5-(2-chlorophenyl)-7-nitro-1,2,3,4-tetrahydroisoquinolin-2-yl]butan-1-one], the “Percentage Cell Viability” value in data set [3] (individual repeats, listed as 17, 50 µM) is 68.4%. For the same molecule, the cytotoxicity at 50 µM in data set [3] (setting [6]) is 49.2%; in data set [3] (setting [8]), 43%. Besides, the viability at 50 µM turned out to be 71.3% in data set [3] (setting [7]) and 74.2% in data set [3] (setting [9]).

For `CCC(C)C(=O)Nc1cc2ccccc2c(-c2ccccc2Cl)n1` (centres unmarked) [CO-AAW0008], the “Percentage Cell Viability” value in data set [3] (individual repeats, listed as 8, 50 µM) was 54.1% and 81.7%. In addition, the cytotoxicity at 50 µM in data set [3] (setting [6]) turned out to be 39.2%; in data set [3] (setting [8]), 48.8%. Further, in data set [3] (setting [7]), the viability at 50 µM was determined as 67.9%.

Take `CC(C)C(=O)Nc1cc2c(c(-c3ccccc3Cl)c1)CCN(C(=O)C(F)(F)F)C2` [CO-AAW0001, N-[5-(2-chloro-phenyl)-2-(2,2,2-trifluoro-acetyl)-1,2,3,4-tetrahydro-isoquinolin-7-yl]-isobutyramide]: in data set [3] (individual repeats, listed as 1, 50 µM), the “Percentage Cell Viability” value was 73.8% and 67.7% and 47.9% and 62.5% and 48.0% and 52.8% and 52.9% and 48.5% and 68.4% and 65.4%. In addition, the cytotoxicity at 50 µM in data set [3] (setting [6]) came out at 52.8%. Also, the viability at 50 µM in data set [3] (setting [7]) came out at 59.7%.

For `CCCCNC(=O)c1cc2ccccc2c(-c2ccccc2Cl)n1` [CO-AAW00022], the “Percentage Cell Viability” value in data set [3] (individual repeats, listed as 22, 50 µM) was 19.4%. Moreover, the cytotoxicity at 50 µM in data set [3] (setting [6]) turned out to be 65.4%; in data set [3] (setting [8]), 62.9%. The viability at 50 µM worked out at 28.4% in data set [3] (setting [7]) and 37.4% in data set [3] (setting [9]).

`CC(C)C(=O)Nc1cc2ccccc2c(-c2ccccc2Cl)n1` [CO-AAW0007]: the “Percentage Cell Viability” value in data set [3] (individual repeats, listed as 7, 50 µM) was 63.9% and 88.2%. In data set [3] (setting [6]), the cytotoxicity at 50 µM was found to be 26.1%. Also, the viability at 50 µM in data set [3] (setting [7]) amounted to 76.1%.

As to `CCCCC(=O)Nc1cc2c(c(-c3ccccc3Cl)c1)CCN(C(=O)C(F)(F)F)C2` [CO-AAW00030, pentanoic acid [5-(2-chlorophenyl)-2-(2,2,2-trifluoro-acetyl)-1,2,3,4-tetrahydro-isoquinolin-7-yl]amide], the cytotoxicity at 50 µM in data set [3] (setting [6]) and in data set [3] (setting [8]) was 61.2% throughout. The viability at 50 µM in data set [3] (setting [7]) and in data set [3] (setting [9]) was 64.3% each time.

Consider `CC(C)NC(=O)c1cc2ccccc2c(-c2ccccc2Cl)n1` [CO-AAW0009], for which the “Percentage Cell Viability” value in data set [3] (individual repeats, listed as 9, 50 µM) is 48.8% and 90.5%. The cytotoxicity at 50 µM in data set [3] (setting [6]) was 32.4%. The viability at 50 µM in data set [3] (setting [7]) is 69.9%.

In the case of `CNC(=O)c1cc2ccccc2c(-c2ccccc2Cl)n1` [CO-AAW00020], the “Percentage Cell Viability” value in data set [3] (individual repeats, listed as 20, 50 µM) was 78.7%. Moreover, the cytotoxicity at 50 µM came to 17.3% in data set [3] (setting [6]) and 17.1% in data set [3] (setting [8]). The viability at 50 µM in data set [3] (setting [7]) came out at 75.7%; in data set [3] (setting [9]), 72.7%.

On to `CC(C)NC(=O)c1cc2ccccc2c(-c2c(Cl)cccc2Cl)n1` [CO-AAW00018], for which the “Percentage Cell Viability” value in data set [3] (individual repeats, listed as 18, 50 µM) was 79.2%. Further, the cytotoxicity at 50 µM in data set [3] (setting [6]) was 24.1%; in data set [3] (setting [8]) it was 25.6%. For the same molecule, the viability at 50 µM in data set [3] (setting [7]) turned out to be 82%; in data set [3] (setting [9]) it was 84.8%.

In the case of `O=C(Nc1nc2c(c(-c3ccccc3Cl)n1)CN(Cc1ccccc1)CC2)c1cccc(Cl)c1Cl` [CO-AAW00016, N-[6-benzyl-4-(2-chlorophenyl)-5H,6H,7H,8H-pyrido[4,3-d]pyrimidin-2-yl]-2,3-dichlorobenzamide], in data set [3] (individual repeats, listed as 16, 50 µM), the “Percentage Cell Viability” value stood at 76.5%. Besides, the results for the cytotoxicity at 50 µM in data set [3] (setting [6]) and in data set [3] (setting [8]) were 33.5% and 33.4%, respectively. Further, the viability at 50 µM amounted to 77.5% in data set [3] (setting [7]) and 78.5% in data set [3] (setting [9]).
